Test results taken from patent publication US20240336658A1, “CYCLIC PEPTIDE AND PREPARATION METHOD AND USE THEREOF” (HANGZHOU HUIBO SCIENCE AND TECHNOLOGY CO., LTD, priority 2021, published 2024).
Entries after “also recorded” stand apart in the source; their conditions may differ. Where two headings read alike, the source gives them in different places.

How the values were obtained:
[1] = system: full-thickness skin defect wound surfaces; experiment: Effect of Hst1-MAD cyclic peptide on wound repair in mice (Example 22): healing rate, histology, immunohistochemistry, immunofluorescence double staining, Western Blot; type: in vivo, C57 BL/6 mice
Procedure: […]. 36 healthy male special pathogen-free grade C57 BL/6 mice (purchased from Guangdong Experimental Animal Center) of 6-8 weeks old and weighing 22-28 g. They were intraperitoneally injected with 5 ml/kg of 1% pentobarbital sodium for anesthesia. After the mice had no corneal reflex, the hair on their backs was carefully removed and disinfected with alcohol. […] full-thickness skin defect wound surfaces were prepared on the back of each mouse by using a circular skin punch. […]. Each wound surface was added with 0.5 ml of four drugs respectively, and administration was conducted every day until the wound surfaces of the experimental groups healed. Photographs were taken on days 0, 3, 5, and 10 after surgery, and wound tissues were sampled on days 3, 5, and 10 for subsequent pathological staining.
was observed and photographed with a digital camera (see FIG. 19), and the wound healing rate was calculated (see FIG. 20). Wound healing rate=(wound area immediately after injury−unhealed wound area at each time point)÷wound area immediately after injury×100%.
The wound specimens were fixed in 4% paraformaldehyde for 48 hours, rinsed with tap water for 10 minutes, dehydrated with graded ethanol, permeabilized with xylene, and embedded in paraffin to prepare 4 μm thick sections. Some sections were taken and subjected to HE staining to detect an epidermal thickness and subjected to Masson staining to detect newly grown collagen. Through hematoxylin-cosin staining (HE), the effects of the four groups of drugs on newly grown epidermal at the wound surface on day 10 were evaluated (FIGS. 21 and 22). Through Masson staining, the effects of the four groups of drugs on newly grown collagen at the wound surface on days 5 and 10 were evaluated (FIGS. 23 and 24). 5 sections were taken from each mouse, and 5 fields of view were selected for each section. Data analysis was performed using the software Image-pro Plus.
and rehydrated, subjected to antigen thermal repair with a 0.1 mol/L citric acid buffer (with a pH value of 6.0) for 20 minutes, treated with hydrogen peroxide with a volume fraction of 10% for inactivation of endogenous peroxidase for 10 minutes, and blocked with 50 g/L of bovine serum albumin for 2 hours. It was added with a rabbit anti-mouse CD31 primary antibody (with a dilution ratio of 1:300) and a mouse anti-VEGF (with a dilution ratio of 1:100), incubated overnight at 4° C., and washed with PBS. It was rewarmed for 1 hour, washed with PBS, added dropwise with ready-to-use biotinylated goat anti-mouse and goat anti-rabbit IgG secondary antibodies, incubated for 2 hours, and washed with PBS. It was subjected to DAB development, hematoxylin counterstaining. gradient ethanol dehydration, xylene permeabilization, and resin blocking. 5 sections were taken from each mouse, and 5 fields of view were selected for each section. The sections were observed under a 400× inverted fluorescence microscope, and analyzed for the number of CD31-positive blood vessels (see FIG. 25) and VEGF expression amounts (see FIG. 26) by using Image-pro Plus software.
The specific steps were: the previous steps were the same as those of 1.3.3, and they were incubated with the antibodies MHCII (orb101661; 1:500; Biorbyt Biotechnology Co., Ltd., Wuhan, CN), CD11c (97585; 1:200; Cell Signaling Technology Inc., Boston, MA), CD68 (GB11067; 1:300; Servicebio Inc.), CD80 (GB11034; 1:300; Servicebio Inc.), CD206 (GB11062; 1:500; Servicebio Inc.), claudin1 (37-4900; 1:100; Thermo Fisher Scientific Co., Ltd, Shanghai, CN) and claudin2 (32-5600; 1:200; Thermo Fisher Scientific Co., Ltd.) at 4° C. overnight. The fluorescent-labeled secondary antibodies were incubated at room temperature for 1 h, followed by 4′,6-diamidino-2′-phenylindole (DAPI) (G1012; Google Biotechnology Co., Ltd., Wuhan, CN). The stained sections were photographed by using a fluorescence microscope (Nikon Eclipse TI-SR. Tokyo, Japan). […]

fibroblasts (NIH/3T3) = experiment: Scratch experiment, Hst1-MAD cyclic peptides (Example 23); type: cell-based; settings: dose required to achieve the same pharmaceutical effect in the scratch experiment
Excerpt: In this example, the propargylglycine-Hst1-MAD cyclic peptide, the homopropargylglycine-Hst1-MAD cyclic peptide, the dihomopropargylglycine-Hst1-MAD cyclic peptide and the linear Hst1 prepared in Examples 13, 14, and 15, and the Hst1-MAD head-to-tail cyclic peptide or N-terminal and C-terminal cyclized peptide prepared by the amide bond cyclization method provided by the literature of for example Sortase A as a tool for high-yield histatin cyclization, Jan G. M. Bolscher, The FASEB Journal. Research Communication, were adopted respectively, the reaction time was recorded, the yield of the reaction product was detected by HPLC, the proportion of side reactions in the reaction product was calculated, and activity comparison was performed. The activity comparison method was to calculate the dose required to achieve the same pharmaceutical effect through a scratch experiment. […] After 12 hours and 24 hours of culture, the scratched area of each group was calculated by using imageJ (Rawak Software, Inc. Germany) software, and the scratch area at 0 hour was an initial scratch area. The scratch healing rate was calculated in the following manner: W % (scratch healing rate)=(W0−Wt)/W0×100%, where W0=an initial scratch area, and Wt=a remaining scratch area; and the results were as shown in Table 14.

Cyclized Hst1 prepared by Sortase A enzymatic method
ring closure, conversion (enzyme bond, Sortase A): 90%

Hst1 cyclized through amide bonds
ring closure, conversion (amide bond): 3%

Linear Hst1-MAD: shortest sequence that maintains Hst1 activity, 20th to 32nd amino acids of Hst1, SEQ ID NO.13 (SHREFPFYGDYGS)
inhibitory effects on inflammatory factors IL-6 and MIP-1β ([1]; Western Blot, 1 μM Click-Hst1-MAD, 1 μM Hst1-MAD): significantly better than those of the control group and the 10 μM Histatin1 group | expression levels of Nrf2 and HO-1 ([1]; day 3 after surgery, Western Blot, 1 μM Click-Hst1-MAD, 1 μM Hst1-MAD): increased compared with those in the Control group | VEGF expression amount ([1]; day 5, 1 μM Click-Hst1-MAD, 10 μM Histatin1, 1 μM Hst1-MAD compared with each other): comparable | expression levels of the dermal collagen ([1]; day 5, 1 μM Hst1-MAD and 10 μM Histatin1 compared with each other): equivalent | epidermal thickness at the wound surface ([1]; day 10, HE staining, 1 μM Click-Hst1-MAD, 1 μM Hst1-MAD, 10 μM Histatin1): thinnest epidermal thickness | Claudin1 expression intensity ([1]; day 10, immunofluorescence, 1 μM Click-Hst1-MAD, 1 μM Hst1-MAD, 10 μM Histatin1): equivalent expression level of Claudin1 | healing rate of the wound surface ([1]; days 3 and 5, 1 μM Click-Hst1-MAD, 1 μM Hst1-MAD linear peptide, 10 μM Histatin1): equivalent to that of the 10 μM Histatin linear peptide group | number of dendritic cells (MHCII+ and CD11c+) ([1]; days 3 and 5 evaluated, 1 μM Click-Hst1-MAD, 1 μM Hst1-MAD, 10 μM Histatin1): slightly lower than that of the 10 μM Histatin1 group; also recorded: significantly higher than that in the Control group | number of M1 macrophages (CD68+ and CD80+) ([1]; days 3 and 5 evaluated, 1 μM Hst1-MAD, 10 μM Histatin1): slightly higher than that in the 10 μM Histatin1 group; also recorded: lower than that in the Control group | number of CD31-positive blood vessels ([1]; days 5 and 10, immunohistochemistry, 1 μM Click-Hst1-MAD, 1 μM Hst1-MAD, 10 μM Histatin1): significantly higher than that in the Control group | Dosage of agents required for scratch test (fibroblasts (NIH/3T3)): 8 µM
